From US9676782B2, “Substituted pyrazolo[1,5-a]pyrazines as negative allosteric modulators of metabotropic glutamate receptor 3” (Vanderbilt University, priority 2014, dated 2017)
pEC50, pIC50: −log10 of the molar value. Read-outs that look alike come from different tables or passages of the source.

What was measured:
rat mGlu3 = rat mGlu3 (Rattus norvegicus (Rat), UniProt P31422); experiment: mGlu3 Ca2+ flux assay; type: cell-based; details: for remaining activity at 30 µM: amplitude of response at 30 μM test compound as % of maximal response to glutamate, read-out: rat mGlu3 Glu max (%); for mGlu3 Glu max: response at 30 μM compound as percentage of maximal glutamate response
In short: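 Cells expressing rat mGlu3 were grown overnight at 37° C. under 5% CO2, then loaded with dye. After dye removal they received 20 μL of assay buffer and sat 10 minutes at room temperature. Calcium flux was read on a Hamamatsu FDSS7000, and fluorescence was expressed as fold over basal and normalized to the maximal glutamate response.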

rat mGlu5 = rat mGlu5 (Rattus norvegicus (Rat), UniProt P31424); experiment: mGlu5 Ca2+ flux assay; type: cell-based; details: for Fold selectivity (mGlu3 vs. mGlu5): ratio of rat mGlu5 EC50 or IC50 to rat mGlu3 IC50; for mGlu5 Glu max: response at 30 μM compound as percentage of maximal glutamate response
In short: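 Transfected cells grown overnight at 37° C/5% CO2, dye-loaded, then 5 min in assay buffer at RT before Ca2+ flux read on FDSS7000. Fluorescence as F/F0 fold over basal, normalized to maximal glutamate response; EC50 from unconstrained 4-parameter logistic fit, triplicates weighted evenly.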

mGlu1 = experiment: mGlu selectivity assay: effect of a single concentration on the glutamate concentration-response curve; type: cell-based; details: tested at 10 μM
Excerpt: (§1) Selectivity versus other mGlus can also be assessed by evaluating the effect of a single concentration of compound on the glutamate concentration-response curve (CRC) in cell lines expressing the mGlu of interest.

mGlu7 = experiment: as above; type: cell-based; details: tested at 10 μM
Excerpt: as §1

mGlu8 = experiment: as above; type: cell-based; details: tested at 10 μM
Excerpt: as §1

mGlu6 = mGlu6 (Homo sapiens (Human), UniProt O15303); experiment: as above; type: cell-based; details: tested at 10 μM
Excerpt: as §1

mGlu4 = experiment: as above; type: cell-based; details: tested at 10 μM
Excerpt: as §1

mGlu2 = experiment: as above; type: cell-based; details: tested at 10 μM
Excerpt: as §1

Helpless (H) mice = details: genetic model of depression; cited from earlier work
[1] = system: Aβ-induced neurodegeneration; details: cited from earlier work
[2] = system: central mGlu2 and mGlu3 receptors; details: in vivo; cited from earlier work
[3] = system: tumors injected into nude mice; details: compared with controls; cited from earlier work
glioma stem cells (GSC) = details: in vitro; cited from earlier work
C57Bl6/J mice = details: forced swim test; cited from earlier work
cultured astrocytes = details: cited from earlier work
schizophrenic patients = details: compared to placebo, P<0.001 at week 4; cited from earlier work
[4] = read-out: rat mGlu5 EC50 or IC50
[5] = Table 2 compounds with X = NMe, read-out: mGlu3 IC50
[6] = Table 2 compounds with X = NMe, read-out: mGlu5 EC50
[7] = Table 2 compounds with X = O, read-out: mGlu3 IC50
[8] = Table 2 compounds with X = O, read-out: mGlu5 EC50
[9] = Table 2 compounds with X = NH, read-out: mGlu3 IC50
[10] = Table 2 compounds with X = NH, read-out: mGlu5 EC50

Sequence of rat mGlu5 (P31424 21-1203): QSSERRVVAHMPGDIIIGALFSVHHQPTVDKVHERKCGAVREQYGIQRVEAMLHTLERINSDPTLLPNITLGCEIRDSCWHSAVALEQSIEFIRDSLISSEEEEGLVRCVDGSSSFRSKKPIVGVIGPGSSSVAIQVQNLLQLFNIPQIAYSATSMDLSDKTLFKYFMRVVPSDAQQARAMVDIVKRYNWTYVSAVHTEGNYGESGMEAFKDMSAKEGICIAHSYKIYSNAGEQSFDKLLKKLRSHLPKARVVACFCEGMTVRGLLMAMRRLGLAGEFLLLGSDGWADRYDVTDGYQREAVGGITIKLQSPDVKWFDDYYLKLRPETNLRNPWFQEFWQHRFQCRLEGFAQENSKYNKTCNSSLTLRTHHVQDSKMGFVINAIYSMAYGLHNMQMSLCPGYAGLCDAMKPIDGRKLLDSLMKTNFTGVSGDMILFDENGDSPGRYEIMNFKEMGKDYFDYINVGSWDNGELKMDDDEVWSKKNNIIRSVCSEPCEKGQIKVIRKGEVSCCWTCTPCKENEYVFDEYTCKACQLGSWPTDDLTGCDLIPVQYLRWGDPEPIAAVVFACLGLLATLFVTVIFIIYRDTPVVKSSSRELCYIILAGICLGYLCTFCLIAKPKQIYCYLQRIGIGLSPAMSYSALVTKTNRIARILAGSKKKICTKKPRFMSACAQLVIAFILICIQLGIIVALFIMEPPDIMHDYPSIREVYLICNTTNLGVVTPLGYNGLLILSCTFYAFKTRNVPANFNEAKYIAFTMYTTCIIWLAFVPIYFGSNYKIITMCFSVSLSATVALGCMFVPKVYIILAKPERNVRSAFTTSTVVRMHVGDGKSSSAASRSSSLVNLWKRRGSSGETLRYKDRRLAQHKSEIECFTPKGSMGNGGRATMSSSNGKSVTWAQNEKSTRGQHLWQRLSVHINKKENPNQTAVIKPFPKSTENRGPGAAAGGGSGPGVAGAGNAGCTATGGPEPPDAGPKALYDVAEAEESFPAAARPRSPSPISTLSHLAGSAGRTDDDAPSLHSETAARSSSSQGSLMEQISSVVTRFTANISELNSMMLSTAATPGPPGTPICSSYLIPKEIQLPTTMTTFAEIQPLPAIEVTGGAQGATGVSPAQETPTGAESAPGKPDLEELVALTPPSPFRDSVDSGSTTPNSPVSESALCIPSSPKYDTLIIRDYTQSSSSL
Sequence of rat mGlu3 (P31422 23-879): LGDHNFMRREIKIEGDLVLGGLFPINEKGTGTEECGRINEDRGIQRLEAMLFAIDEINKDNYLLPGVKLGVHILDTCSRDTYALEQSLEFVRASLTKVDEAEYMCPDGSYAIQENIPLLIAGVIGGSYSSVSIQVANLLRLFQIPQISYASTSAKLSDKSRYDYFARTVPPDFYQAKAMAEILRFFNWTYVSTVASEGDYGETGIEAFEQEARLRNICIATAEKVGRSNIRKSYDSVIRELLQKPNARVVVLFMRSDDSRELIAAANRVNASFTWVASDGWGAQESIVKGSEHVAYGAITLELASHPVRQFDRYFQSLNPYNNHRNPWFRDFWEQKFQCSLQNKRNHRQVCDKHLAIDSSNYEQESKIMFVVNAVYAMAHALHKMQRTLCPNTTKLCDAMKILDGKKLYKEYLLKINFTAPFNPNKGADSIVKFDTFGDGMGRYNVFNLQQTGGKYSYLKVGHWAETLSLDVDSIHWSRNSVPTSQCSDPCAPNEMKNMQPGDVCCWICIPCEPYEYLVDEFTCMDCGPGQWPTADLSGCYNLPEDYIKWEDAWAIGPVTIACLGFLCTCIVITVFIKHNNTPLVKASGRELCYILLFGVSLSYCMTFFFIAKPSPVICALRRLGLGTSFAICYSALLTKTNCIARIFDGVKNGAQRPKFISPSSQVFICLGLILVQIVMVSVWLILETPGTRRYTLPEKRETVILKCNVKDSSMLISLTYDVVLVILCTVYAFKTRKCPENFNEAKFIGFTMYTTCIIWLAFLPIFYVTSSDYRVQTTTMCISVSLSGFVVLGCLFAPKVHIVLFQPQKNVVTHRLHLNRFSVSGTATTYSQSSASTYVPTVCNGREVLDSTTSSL
Sequence of mGlu6 (O15303 25-877): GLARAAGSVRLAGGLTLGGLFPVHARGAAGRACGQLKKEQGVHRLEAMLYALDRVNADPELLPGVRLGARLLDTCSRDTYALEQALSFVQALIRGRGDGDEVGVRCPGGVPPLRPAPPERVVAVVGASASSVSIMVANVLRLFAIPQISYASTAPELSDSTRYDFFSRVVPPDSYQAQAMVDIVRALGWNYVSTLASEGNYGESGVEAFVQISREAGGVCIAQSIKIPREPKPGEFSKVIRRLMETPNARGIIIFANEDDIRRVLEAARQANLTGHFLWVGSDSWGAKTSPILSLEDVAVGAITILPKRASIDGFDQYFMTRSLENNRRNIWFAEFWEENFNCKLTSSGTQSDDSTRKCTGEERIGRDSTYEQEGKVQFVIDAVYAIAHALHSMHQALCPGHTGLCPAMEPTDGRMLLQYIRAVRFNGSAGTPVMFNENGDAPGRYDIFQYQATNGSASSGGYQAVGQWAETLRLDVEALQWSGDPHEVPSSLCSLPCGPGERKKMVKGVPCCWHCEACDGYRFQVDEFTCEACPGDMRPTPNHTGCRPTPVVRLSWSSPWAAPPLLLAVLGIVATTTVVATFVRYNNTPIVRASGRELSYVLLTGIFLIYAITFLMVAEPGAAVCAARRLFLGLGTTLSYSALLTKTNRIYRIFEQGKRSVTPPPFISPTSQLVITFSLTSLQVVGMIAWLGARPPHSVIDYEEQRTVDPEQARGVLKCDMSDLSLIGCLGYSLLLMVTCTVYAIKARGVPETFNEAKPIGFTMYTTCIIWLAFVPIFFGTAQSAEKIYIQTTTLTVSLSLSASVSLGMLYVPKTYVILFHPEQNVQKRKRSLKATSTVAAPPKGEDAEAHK

N#CCc1ccc(NCc2cc3n(n2)CCN(c2ccc(F)cc2)C3=O)cc1 [Compound 26, 2-(4-(((5-(4-fluorophenyl)-4-oxo-4,5,6,7-tetrahydropyrazolo[1,5-a]pyrazin-2-yl)methyl)amino)phenyl)acetonitrile]
remaining activity at 30 µM (rat mGlu3): 1.01% | pIC50 (rat mGlu3; read-out: rat mGlu3 IC50): 6.05 | Fold selectivity (mGlu3 vs. mGlu5) (rat mGlu5): >33 | pEC50 (rat mGlu5; [4]): < 4.52 | activity against mGlu1 (mGlu1): inactive | activity against mGlu7 (mGlu7): inactive | activity against mGlu8 (mGlu8): inactive | activity against mGlu6 (mGlu6): inactive | activity against mGlu4 (mGlu4): inactive | activity against mGlu2 (mGlu2): inactive

COc1ccc(N(C)Cc2cc3n(n2)CCN(c2ccc(F)cc2)C3=O)cc1 [Compound 92, 5-(4-fluorophenyl)-2-(((4-methoxyphenyl)(methyl)amino)methyl)-6,7-dihydropyrazolo[1,5-a]pyrazin-4(5H)-one]
pIC50 (rat mGlu3; NAM potency, decrease of glutamate EC80 response, >30,000 = no measurable activity, >10,000 = no plateau, read-out: rat mGlu3 IC50): 6.01 | remaining activity at 30 µM (rat mGlu3): 1.39% | Fold selectivity (mGlu3 vs. mGlu5) (rat mGlu5): >30 | pEC50 (rat mGlu5; [4]): < 4.52 | activity against mGlu1 (mGlu1): inactive | activity against mGlu7 (mGlu7): inactive | activity against mGlu8 (mGlu8): inactive | activity against mGlu6 (mGlu6): inactive | activity against mGlu4 (mGlu4): inactive | activity against mGlu2 (mGlu2): inactive

N[C@](CC1c2ccccc2Oc2ccccc21)(C(=O)O)[C@H]1C[C@@H]1C(=O)O [LY341495]
activity in the tail suspension test (Helpless (H) mice): active | effect on Aβ-induced neurodegeneration [1]: prevented | reversal of hypolocomotor effect of LY379268 [2]: achieved the same result | growth rate of tumors [3]: reduced | volume of tumors [3]: reduced | proliferation rates (glioma stem cells (GSC)): decreased in a time-dependent manner | proportion of cells in S phase (glioma stem cells (GSC)): decreased in a time-dependent manner | immobility time (C57Bl6/J mice): dose-dependently reduced immobility time

N[C@@]1(C(=O)O)CO[C@H]2[C@H](C(=O)O)[C@H]21 [LY379268]
sAPPα release (cultured astrocytes): incremented sAPPα release | effect on Aβ-induced neurodegeneration [1]: neuroprotective activity

N[C@@]1(C(=O)O)CS(=O)(=O)[C@H]2[C@H](C(=O)O)[C@H]21 [LY404039]
positive and negative symptoms of schizophrenia (schizophrenic patients): statistically significant improvements in both positive and negative symptoms

CCS(=O)(=O)N(Cc1cccnc1)c1cccc(-c2ccc(C#N)cc2)c1 [LY566332]
effect on Aβ-induced neurodegeneration [1]: amplified Aβ-induced neurodegeneration

Cc1cc(-c2cccc(C3=Nc4cc(C)c(C(F)(F)F)cc4NC(=O)C3)c2)cc(C)n1 [RO4491533]
activity in the tail suspension test (Helpless (H) mice): active | reversal of hypolocomotor effect of LY379268 [2]: reversed the hypolocomotor effect | immobility time (C57Bl6/J mice): dose-dependently reduced immobility time

CN(Cc1cc2n(n1)CCN(c1ccc(F)cc1)C2=O)c1ccccc1 [drawing 29 X = NMe]
pIC50 (rat mGlu3; [5]): 5.91 | mGlu3 Glu max (rat mGlu3; Table 2 compounds with X = NMe): 1% | pEC50 (rat mGlu5; [6]): < 4.52

O=C1c2cc(COc3ccccc3)nn2CCN1c1ccc(F)cc1 [drawing 29 X = O, reference compound]
pIC50 (rat mGlu3; [7]): 6.56 | mGlu3 Glu max (rat mGlu3; Table 2 compounds with X = O): 2% | pEC50 (rat mGlu5; [8]): 7.36 | mGlu5 Glu max (rat mGlu5; Table 2 compounds with X = O): 79%

O=C1c2cc(CNc3ccccc3F)nn2CCN1c1ccc(F)cc1 [drawing 30 X = NH]
pIC50 (rat mGlu3; [9]): 6.03 | mGlu3 Glu max (rat mGlu3; Table 2 compounds with X = NH): 2% | pEC50 (rat mGlu5; [10]): 5.61 | mGlu5 Glu max (rat mGlu5; Table 2 compounds with X = NH): 96%

CN(Cc1cc2n(n1)CCN(c1ccc(F)cc1)C2=O)c1ccccc1F [drawing 30 X = NMe]
pIC50 (rat mGlu3; [5]): 6.06 | mGlu3 Glu max (rat mGlu3; Table 2 compounds with X = NMe): −1% | pEC50 (rat mGlu5; [6]): < 4.52

O=C1c2cc(COc3ccccc3F)nn2CCN1c1ccc(F)cc1 [drawing 30 X = O, reference compound]
pIC50 (rat mGlu3; [7]): 6.58 | mGlu3 Glu max (rat mGlu3; Table 2 compounds with X = O): 2% | pEC50 (rat mGlu5; [8]): 6.83 | mGlu5 Glu max (rat mGlu5; Table 2 compounds with X = O): 61%

O=C1c2cc(CNc3cccc(F)c3)nn2CCN1c1ccc(F)cc1 [drawing 31 X = NH]
pIC50 (rat mGlu3; [9]): 5.98 | mGlu3 Glu max (rat mGlu3; Table 2 compounds with X = NH): 1% | pEC50 (rat mGlu5; [10]): 5.66 | mGlu5 Glu max (rat mGlu5; Table 2 compounds with X = NH): 99%

CN(Cc1cc2n(n1)CCN(c1ccc(F)cc1)C2=O)c1cccc(F)c1 [drawing 31 X = NMe]
pIC50 (rat mGlu3; [5]): 6.23 | mGlu3 Glu max (rat mGlu3; Table 2 compounds with X = NMe): 2% | pEC50 (rat mGlu5; [6]): 5.11 | mGlu5 Glu max (rat mGlu5; Table 2 compounds with X = NMe): 110%

O=C1c2cc(COc3cccc(F)c3)nn2CCN1c1ccc(F)cc1 [drawing 31 X = O, reference compound]
pIC50 (rat mGlu3; [7]): 6.88 | mGlu3 Glu max (rat mGlu3; Table 2 compounds with X = O): 1% | pEC50 (rat mGlu5; [8]): 6.72 | mGlu5 Glu max (rat mGlu5; Table 2 compounds with X = O): 69%

CN(Cc1cc2n(n1)CCN(c1ccc(F)cc1)C2=O)c1ccc(F)cc1 [drawing 32 X = NMe]
pIC50 (rat mGlu3; [5]): 6.33 | mGlu3 Glu max (rat mGlu3; Table 2 compounds with X = NMe): 1% | pEC50 (rat mGlu5; [6]): < 4.52

O=C1c2cc(COc3ccc(F)cc3)nn2CCN1c1ccc(F)cc1 [drawing 32 X = O, reference compound]
pIC50 (rat mGlu3; [7]): 6.97 | mGlu3 Glu max (rat mGlu3; Table 2 compounds with X = O): 1% | pEC50 (rat mGlu5; [8]): 6.97 | mGlu5 Glu max (rat mGlu5; Table 2 compounds with X = O): 71%
